Data published in patent US20250352559A1, “Transdermal Delivery Composition for Delivery of at least one Glucose Controlling Agent, and Method of Delivering at least one Glucose Controlling Agent” (Skinvisible Pharmaceuticals, Inc., priority 2024, published 2025).

Assays:
[1] = tested on: animal models of diet-induced obesity; details: cited from earlier work
[2] = cited from earlier work
[3] = tested on: 3T3-LI preadipocytes; details: in vitro; cited from earlier work
[4] = preclinical studies, therapeutic doses; cited from earlier work
[5] = Franz Cell study, rate of diffusion across a cellulose membrane; assay type: in vitro ADME; details: after 6 hours, transdermal formulation of 1% THCV
Method: A transdermal formulation of 1% THCV was prepared according to Table 1. The THCV formulation was subjected to a Franz Cell study, measuring the rate of diffusion across a cellulose membrane. As illustrated by the results, after 6 hours, 6.08 mg of THCV diffused across the cellulose membrane. The total dose of THCV applied to the membrane was 11.63 mg, and this calculates to a delivered dose of 52.3% of the THCV which is unexpected.

Molecule	body weight gain, adipose tissue mass, glucose tolerance and insulin sensitivity [1]	adipocyte differentiation and lipid accumulation [3]	safety profile and tolerability [4]	other results
C[C@H](NC(=O)C(C)(C)Oc1ccc(C(F)(F)F)cn1)[C@@H](Cc1ccc(Cl)cc1)c1cccc(C#N)c1 [taranabant]	reduce body weight gain, decrease adipose tissue mass, and improve glucose tolerance and insulin sensitivity	–	–	body weight and metabolic parameters in clinical trials ([2]; clinical trials for the treatment of obesity): promising results in reducing body weight and improving metabolic parameters
Cc1c(C(=O)NN2CCCCC2)nn(-c2ccc(Cl)cc2Cl)c1-c1ccc(Cl)cc1 [rimonabant]	reduce body weight gain, decrease adipose tissue mass, and improve glucose tolerance and insulin sensitivity	–	–	clinical safety ([2]; marketed use, later withdrawn): increased risk of psychiatric adverse effects
CCCCCc1cc(O)cc(O)c1 [Olivetol]	reduce body weight gain, decrease adipose tissue mass, and improve glucose tolerance and insulin sensitivity	inhibit adipocyte differentiation and lipid accumulation	favorable safety profiles and are well-tolerated at therapeutic doses	–
Tetrahydrocannabivarin [THCV]	–	–	–	delivered dose of the THCV ([5]; 6.08 mg of 11.63 mg applied): 52.3%; THCV diffused across the cellulose membrane ([5]; total dose applied 11.63 mg): 6.08 mg
CCCCCCc1nc(-c2ccc(Cl)cc2)n(-c2ccc(Cl)cc2Cl)n1 [LH-21]	reduce body weight gain, decrease adipose tissue mass, and improve glucose tolerance and insulin sensitivity	inhibit adipocyte differentiation and lipid accumulation	favorable safety profiles and are well-tolerated at therapeutic doses	–
